Experimental data published in US20080219977A1, “Combinations Comprising Gemcitabine and Tyrosine Kinase Inhibitors for the Treatment of Pancreatic Cancer” (priority 2005, published 2008).

Key:
[1] = system: tumor-associated endothelial cells; assay: CD31/TUNEL fluorescent double labeling, apoptosis of tumor-associated endothelial cells; format: in vivo, nude mice; settings: Median ± S.D.; ratio of apoptotic endothelial cells to total endothelial cells
Description: Double Immunofluorescence Staining for CD31/PECAM-1 and EGFR, pEGFR, VEGFR, pVEGFR, PDGFRβ, pPDGFRβ, Pericytes (desmin-positive cells), and TUNEL. Frozen sections of pancreatic tumors are mounted on slides and fixed. Immunofluorescence for CD31 is performed using Alexa594 conjugated secondary antibody, and samples are again blocked briefly in a blocking solution (5% normal horse serum and 1% normal goat serum in PBS) as described above and incubated with antibody against human EGFR, pEGFR, VEGFR, pVEGFR, PDGFRβ, pPDGFRβ, or desmin at 4° C. overnight. After washes and blocking with blocking solution, samples are incubated with Alexa488 conjugated secondary antibody. Endothelial cells are identified by red fluorescence, and EGF-R, pEGFR, VEGFR, pVEGFR, PDGFRβ, pPDGFRβ and desmin positive cells (pericytes) are identified by green fluorescence. The presence of growth factor receptors and phosphorylated receptors on endothelial cells are detected by colocalization of red and green fluorescence, which appeared yellow. TUNEL-positive apoptotic cells are detected by localized green fluorescence within cell nuclei, and endothelial cells are identified by red fluorescence. Apoptotic endothelial cells are identified by yellow fluorescence within the nuclei.

[2] = system: L3.6pl human pancreatic cancer cells; assay: Apoptosis (TUNEL) in L3.6pl tumors; format: in vivo; settings: Median ± S.D.; TUNEL-positive cells in 10 random 0.159-mm^2 fields at ×100
Description: Analysis of apoptotic cells is performed by using a commercially available TUNEL kit (Promega) with the following modifications: Samples are fixed and incubated with an equilibration buffer followed by a reaction buffer (containing nucleotide mix and terminal deoxynucleotidyl transferase enzyme). Immunofluorescence microscopy is performed in a Zeiss Axioplan microscope (Carl Zeiss, Inc., Thornwood, N.Y.) equipped with an HBO 100 mercury lamp, narrow bandpass filters to individually select for green, red, and blue fluorescence (Chroma Technology Corp., Brattleboro, Vt.). Images are captured using a cooled CCD Hamamatsu Orca camera (Hamamatsu Corp., Bridgewater, N.J.) and Image Pro Analysis software (Media Cybernetics, Silver Spring, Md.). Photomontages are prepared using Adobe Photoshop software (Adobe Systems, Inc., San Jose, Calif.). […] Statistical Analysis. Body weight, tumor weight, PCNA-positive cells, mean vessel density (CD31/PECAM-1), and TUNEL-positive cells are compared using the Mann-Whitney U test. Survival analysis is computed by the Kaplan-Meier method and compared by the Log rank test.

PDGFRβ [3] = target: T1, PDGFRβ (Mus musculus, UniProt P05622); assay: Double immunofluorescence CD31/pPDGFRβ on tumor-associated endothelial cells; format: in vivo, nude mice; settings: double immunofluorescence with CD31
T1 construct: Frozen sections of pancreatic tumors are mounted on slides and fixed; from tissue; host or cells: tumour-associated endothelial cells in L3.6pl tumours of nude mice

PDGFRβ [4] = assay: IHC analysis of phosphorylated PDGFRβ in L3.6pl pancreatic tumors; format: in vivo, human; settings: IHC of pancreatic tumors from treated mice
Description: Immunohistochemical (IHC) Analysis to Detect EGF, VEGF, PDGF-BB, EGFR, VEGFR, PDGFRβ, pEGFR, pVEGFR, pPDGF-R in Pancreatic Tumors. Paraffin-embedded pancreatic tumors of mice from all treatment groups are immunostained to evaluate the expression of EGF, VEGF, PDGF-BB, EGFR, VEGFR, PDGFRβ, phosphorylated (p)EGFR, pVEGFR, and pPDGFRβ. The sections are deparaffinized in xylene, dehydrated with alcohol and rehydrated in PBS. Endogenous peroxidase is blocked with 3% hydrogen peroxide in PBS. Samples are exposed to protein block (5% normal horse serum, 1% normal goat serum in PBS) and incubated overnight at 4° C. with each primary antibody at the appropriate dilution. […] Slides are counterstained with Gill's #3 hematoxylin. Sections stained for immunoperoxidase or hematoxylin and eosin are examined in a microscope equipped with a three-chip-charged coupled device (CCD) color video camera. Digital images are captured using Optimas Image Analysis software (Media Cybernetics, Md.).

[5] = system: L3.6pl human pancreatic cancer cells; assay: Therapy of established L3.6pl human pancreatic carcinoma tumors growing in the pancreas of athymic nude mice (tumor weight); format: in vivo
Description: Animals and Orthotopic Implantation of Tumor Cells. Male athymic nude mice (NCI-nu) are purchased from the Animal Production Area of the National Cancer Institute Frederick Cancer Research and Development Center (Frederick, Md.). The mice are housed and maintained under specific pathogen-free conditions. The mice are used when they are 8 to 12 weeks old. To produce pancreatic tumors, L3.6pl cells are harvested from subconfluent cultures by a brief exposure to 0.25% trypsin and 0.02% EDTA. Trypsinization is stopped with medium containing 10% FBS, and the cells are washed once in serum-free medium and resuspended in Hanks' balanced salt solution (HBSS). Only suspensions consisting of single cells with greater than 90% viability are used for injection into the pancreas of nude mice as described previously (Hwang et al. in Clin Cancer Res 2003; 9:6534-44). Treatment of Established Human Pancreatic Carcinoma Tumors Growing in the Pancreas of Athymic Nude Mice. Twenty-one days after the intra-pancreatic injection of 0.5×10^6 viable L3.6pl cells in 50 μl HBSS, the pancreatic tumors reach the size of 5-6-mm. […] All mice are treated for 4 weeks and killed on day 49 of the experiment. Necropsy Procedures and Histological Studies. […] Tumors growing in the pancreas are excised and weighed. For immunohistochemical staining procedures, one part of the tumor tissue is fixed in formalin and embedded in paraffin and the other is embedded in OCT compound (Miles, Inc., Elkhart, Ind.), rapidly frozen in liquid nitrogen, and stored at −70° C. Statistical Analysis. Body weight, tumor weight, PCNA-positive cells, mean vessel density (CD31/PECAM-1), and TUNEL-positive cells are compared using the Mann-Whitney U test. Survival analysis is computed by the Kaplan-Meier method and compared by the Log rank test.

[6] = system: EGF, VEGF, PDGF-BB, EGFR, VEGFR, and PDGFR; assay: IHC expression level of growth factors and receptors in L3.6pl pancreatic tumors; format: in vivo, human; settings: IHC of pancreatic tumors from treated mice
Description: Immunohistochemical (IHC) Analysis to Detect EGF, VEGF, PDGF-BB, EGFR, VEGFR, PDGFRβ, pEGFR, pVEGFR, pPDGF-R in Pancreatic Tumors. Paraffin-embedded pancreatic tumors of mice from all treatment groups are immunostained to evaluate the expression of EGF, VEGF, PDGF-BB, EGFR, VEGFR, PDGFRβ, phosphorylated (p)EGFR, pVEGFR, and pPDGFRβ. The sections are deparaffinized in xylene, dehydrated with alcohol and rehydrated in PBS. Endogenous peroxidase is blocked with 3% hydrogen peroxide in PBS. Samples are exposed to protein block (5% normal horse serum, 1% normal goat serum in PBS) and incubated overnight at 4° C. with each primary antibody at the appropriate dilution. After 1 h incubation at room temperature with peroxidase-conjugated secondary antibody, positive reaction is detected by exposure to stable 3,3′-diaminobenzidine (DAB) (Phoenix Biotechnologies, Huntsville, Ala.). Slides are counterstained with Gill's #3 hematoxylin. Sections stained for immunoperoxidase or hematoxylin and eosin are examined in a microscope equipped with a three-chip-charged coupled device (CCD) color video camera. Digital images are captured using Optimas Image Analysis software (Media Cybernetics, Md.).

[7] = system: tumor-associated endothelial cells; assay: Pericyte (desmin) coverage on tumor-associated endothelial cells; format: in vivo, nude mice; settings: desmin-positive cells in contact with CD31-positive cells
Description: Double Immunofluorescence Staining for CD31/PECAM-1 and EGFR, pEGFR, VEGFR, pVEGFR, PDGFRβ, pPDGFRβ, Pericytes (desmin-positive cells), and TUNEL. Frozen sections of pancreatic tumors are mounted on slides and fixed. Immunofluorescence for CD31 is performed using Alexa594 conjugated secondary antibody, and samples are again blocked briefly in a blocking solution (5% normal horse serum and 1% normal goat serum in PBS) as described above and incubated with antibody against human EGFR, pEGFR, VEGFR, pVEGFR, PDGFRβ, pPDGFRβ, or desmin at 4° C. overnight. After washes and blocking with blocking solution, samples are incubated with Alexa488 conjugated secondary antibody. Endothelial cells are identified by red fluorescence, and EGF-R, pEGFR, VEGFR, pVEGFR, PDGFRβ, pPDGFRβ and desmin positive cells (pericytes) are identified by green fluorescence. The presence of growth factor receptors and phosphorylated receptors on endothelial cells are detected by colocalization of red and green fluorescence, which appeared yellow. The coverage of pericytes on endothelial cells is determined by counting CD31 positive cells in direct contact with desmin-positive cells and CD31-positive cells without direct association with desmin-positive cells in five randomly selected microscopic fields.

T1 sequence (P05622 32-1098): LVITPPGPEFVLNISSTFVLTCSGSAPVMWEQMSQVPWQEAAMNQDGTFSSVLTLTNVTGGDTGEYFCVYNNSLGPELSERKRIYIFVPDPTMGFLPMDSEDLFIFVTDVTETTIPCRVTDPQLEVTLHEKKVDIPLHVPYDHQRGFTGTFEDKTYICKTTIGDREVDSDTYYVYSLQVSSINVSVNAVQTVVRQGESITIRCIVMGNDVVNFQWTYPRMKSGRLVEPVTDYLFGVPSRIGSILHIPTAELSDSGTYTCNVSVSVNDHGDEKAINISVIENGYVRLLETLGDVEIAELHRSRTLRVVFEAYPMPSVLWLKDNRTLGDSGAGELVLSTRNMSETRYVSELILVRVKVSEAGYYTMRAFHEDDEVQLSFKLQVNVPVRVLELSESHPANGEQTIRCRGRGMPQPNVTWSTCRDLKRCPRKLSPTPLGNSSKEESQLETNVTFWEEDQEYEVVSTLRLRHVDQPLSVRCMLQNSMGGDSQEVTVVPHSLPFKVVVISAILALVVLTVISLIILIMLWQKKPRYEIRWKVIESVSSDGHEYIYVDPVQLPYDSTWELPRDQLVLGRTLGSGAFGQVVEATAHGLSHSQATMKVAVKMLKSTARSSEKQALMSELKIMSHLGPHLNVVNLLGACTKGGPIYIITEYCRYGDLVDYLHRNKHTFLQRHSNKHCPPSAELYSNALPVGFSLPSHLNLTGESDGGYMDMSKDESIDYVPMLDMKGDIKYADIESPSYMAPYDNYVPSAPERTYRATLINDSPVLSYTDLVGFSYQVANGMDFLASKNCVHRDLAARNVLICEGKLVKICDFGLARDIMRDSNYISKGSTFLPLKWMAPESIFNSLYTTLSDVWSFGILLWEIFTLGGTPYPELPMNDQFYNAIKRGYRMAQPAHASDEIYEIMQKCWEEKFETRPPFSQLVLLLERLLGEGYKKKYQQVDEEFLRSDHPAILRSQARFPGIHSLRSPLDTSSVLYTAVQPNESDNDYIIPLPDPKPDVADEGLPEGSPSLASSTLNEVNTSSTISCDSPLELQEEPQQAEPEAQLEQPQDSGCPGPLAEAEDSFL

Cc1ccc(NC(=O)c2ccc(CN3CCN(C)CC3)cc2)cc1Nc1nccc(-c2cccnc2)n1 [STI571, N-{5-[4-(4-methyl-piperazino-methyl)-benzoylamido]-2-methylphenyl}-4-(3-pyridyl)-2-pyrimidine-amine]
Endothelial cells TUNEL+ (%) [1]: 0 ± 0% | Tumor cells TUNEL (number of apoptotic tumor cells) [2]: 6 ± 2 | phosphorylation of PDGFRβ on tumor-associated endothelial cells (PDGFRβ [3]): decreased | phosphorylation of PDGFRβ in tumors (PDGFRβ [4]): inhibited | effect on tumor growth (in words) ([5]; L3.6pl implanted in the pancreas of nude mice, each drug 50 mg/kg): does not inhibit tumor growth | Tumor weight (g) Median ([5]; pancreatic tumor, AEE788 50 mg/kg oral 3x/week, STI571 50 mg/kg oral daily, gemcitabine 50 mg/kg i.p. twice weekly, 4 weeks, killed day 49, n=10): 0.96 g | expression level of EGF, VEGF, PDGF-BB, EGFR, VEGFR, and PDGFR by the tumor cells or in the stroma cells [6]: do not alter the expression level | pericyte coverage on tumor-associated endothelial cells [7]: decreases pericyte coverage
